Measurements published in patent publication US5387419A, “System for controlled release of antiarrhythmic agents” (The University of Michigan, priority 1993, dated 1995).

Legend:
[1] = test system: Ventricular tachycardia (VT) induced by rapid ventricular pacing; experiment: In vivo ventricular pacing study: conversion of ventricular tachycardia induced by rapid ventricular pacing; set-up: species or system dog (male mongrel dogs); settings: for Effectiveness in converting ventricular tachycardia: in words, controlled release dosage form, epicardial; for Conversion / Peak % Increase in VT Threshold: mean ± standard error; for Conversion: patches: lidocaine 28% in Tecoflex (N 16), procainamide 30% in Thyomer (7), amiodarone 30% in Thyomer with 10% polyethyleneglycol 200 (3), NiCl2 50% in Thyomer (4); for Peak % Increase in VT Threshold: same patches: lidocaine/Tecoflex, procainamide/Thyomer, amiodarone/Thyomer with polyethyleneglycol, NiCl2/Thyomer
From the text: Ventricular tachycardia was induced and maintained by rapid ventricular pacing in an open-chest dog model using male mongrel dogs (10-15 kg). Three sets of bipolar epicardial electrodes were placed at 2 cm distances from the left ventricular apex toward the base of the heart. A Grass Model 8 stimulator (Grass Instruments, delivered continuous electrical stimulation as 2-msec square wave impulses with a 50-msec cycle length via a stimulus isolation unit (Bloom Associates, Reading, Pa.). The stimulus isolation unit also repeatedly monitored the pacing current thresholds. After induction of ventricular tachycardia, a controlled release dosage form of the present invention in the shape of a patch of the drug-loaded polymeric matrix material was placed adjacent to the stimulating electrode. The time required to convert the ventricular tachycardia to sinus rhythm was measured, as well as the time course of the quantitative change for sustaining the induction of ventricular tachycardia. The effects of controlled release were monitored for up to 4 hours after conversion to normal sinus rhythm.
All other dosage forms were fabricated by dissolving the therapeutic agent in dimethylacetamide at a concentration of 100 mg/ml therapeutic agent. This solution was further dissolved in a 10% solution of a Thyomer polyurethane and solvent cast into a 0.2 mm films. […] Controls comprised patches of each polymeric matrix material.

[2] = test system: Ischemia-induced ventricular tachycardia; experiment: In vivo acute ischemia-induced ventricular tachycardia study; set-up: species or system dog; settings: for VT (per/minute): number of VT episodes per minute following epicardial placement: average for N dogs, patches (dose mg/kg/2hr): lidocaine 28% Tecoflex (0.23, N 5), propranolol 30% MPU-5 (0.14, 6), D-sotalol 30% MPU-5 (0.20, 9), verapamil 30% MPU-5 (0.30, 11); for Effectiveness against ischemia-induced ventricular tachycardia: in words, epicardial controlled release
Experimental: Controlled release dosage forms of the present invention have been successful in preventing ischemia-induced ventricular tachycardia in a canine model. Ventricular occlusions of the left anterior descending coronary artery of a dog were produced by exposing and isolating the artery in a dog under anesthesia. A snare with a sliding closure was placed around the artery. Ventricular tachycardia was produced by closing the snare for 10 minutes to shut off the blood supply to left ventricle. The snare was opened for an hour, and then the snare was closed for 10 minutes. This procedure can be repeated up six times and simulates a heart attack. Ventricular tachycardia (VT) was defined as the occurrence of 3 or more sequential ventricular premature beats. The efficacy of various controlled release dosage forms of the present invention were documented by continuous recording of the electrophysiologic data on a Hewlett Packard Physiologic Records, and an 8-channel analogue tape deck (Hewlett Packard, Philadelphia, Pa.).
The data is expressed as the average for the number N of dogs per group. Episodes of VT were paced at one per minutes.

[3] = oral; cited from earlier work
[4] = test system: normal cardiac function; experiment: Other studies: effects of transmyocardial lidocaine on normal cardiac function; format: in vivo; settings: lidocaine administered by transmyocardial route

Structure (SMILES) | Peak % Increase in VT Threshold [1] [%] | VT (per/minute): number of VT episodes per minute following epicardial placement [2] | other results
CCN(CC)CCNC(=O)c1ccc(N)cc1 [Procainamide, procainamide] | 206.7 ± 172.6 | – | Effectiveness in converting ventricular tachycardia [1]: effective in converting ventricular tachycardia; Conversion [1]: 4.05 ± 3.15 min
COc1ccc(CCN(C)CCCC(C#N)(c2ccc(OC)c(OC)c2)C(C)C)cc1OC (stereo not shown) [Verapamil, verapamil] | – | 0.10 ± .03 per/minute | Effectiveness against ischemia-induced ventricular tachycardia [2]: the most effective for arrhythmias due to acute myocardial ischemia
CCCCc1oc2ccccc2c1C(=O)c1cc(I)c(OCCN(CC)CC)c(I)c1 [Amiodarone, amiodarone] | 36.1 ± 12.7 | – | Severe side effects, share of patients [3]: over 70%
[Cl][Ni][Cl] [NiCl2, nickel chloride] | 122.6 ± 101.3 | – | Effectiveness in converting ventricular tachycardia [1]: effective to convert tachycardia to normal sinus rhythm; Conversion [1]: 2.08 ± 1.71 min
CC(C)NC[C@@H](O)c1ccc(NS(C)(=O)=O)cc1 [D-Sotalol, d-sotalol] | – | .046 ± .11 per/minute | Effectiveness against ischemia-induced ventricular tachycardia [2]: the most effective for arrhythmias due to acute myocardial ischemia
CC(C)NCC(O)COc1cccc2ccccc12 (stereo not shown) [Propranolol, propranolol] | – | 1.22 ± .12 per/minute | –
CCN(CC)CC(=O)Nc1c(C)cccc1C [Lidocaine, lidocaine] | 367.7 ± 183.1 | 0.6 ± 0.2 per/minute | Other effects on normal cardiac function [4]: no other significant effects on normal cardiac function
